Assay results taken from patent publication US20110130380A1, “Heteroaryl Kinase Inhibitors” (priority 2009, published 2011).

Biological target: Cdk9/cyclinT1 (Homo sapiens, UniProt P50750)
Assay: Cdk9/cyclinT1 IMAP Protocol (fluorescence polarization kinase assay)
Conditions: Cdk9_cyclinT1_IC50, Table V; generated using one of the two Cdk9/cyclinT1 assays (IMAP or Alpha Screen), not stated which; ATP 6 uM

Cdk9/cyclinT1, sequence (P50750 whole entry): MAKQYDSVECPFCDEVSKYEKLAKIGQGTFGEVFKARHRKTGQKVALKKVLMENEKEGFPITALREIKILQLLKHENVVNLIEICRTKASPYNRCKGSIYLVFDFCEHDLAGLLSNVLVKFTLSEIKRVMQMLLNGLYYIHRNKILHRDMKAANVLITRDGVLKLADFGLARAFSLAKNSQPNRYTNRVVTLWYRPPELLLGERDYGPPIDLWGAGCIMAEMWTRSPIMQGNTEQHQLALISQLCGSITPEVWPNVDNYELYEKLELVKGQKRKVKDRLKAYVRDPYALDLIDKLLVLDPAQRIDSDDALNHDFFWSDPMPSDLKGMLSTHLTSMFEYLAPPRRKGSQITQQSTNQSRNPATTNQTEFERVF
Cdk9/cyclinT1, sequence (O60563 whole entry partner): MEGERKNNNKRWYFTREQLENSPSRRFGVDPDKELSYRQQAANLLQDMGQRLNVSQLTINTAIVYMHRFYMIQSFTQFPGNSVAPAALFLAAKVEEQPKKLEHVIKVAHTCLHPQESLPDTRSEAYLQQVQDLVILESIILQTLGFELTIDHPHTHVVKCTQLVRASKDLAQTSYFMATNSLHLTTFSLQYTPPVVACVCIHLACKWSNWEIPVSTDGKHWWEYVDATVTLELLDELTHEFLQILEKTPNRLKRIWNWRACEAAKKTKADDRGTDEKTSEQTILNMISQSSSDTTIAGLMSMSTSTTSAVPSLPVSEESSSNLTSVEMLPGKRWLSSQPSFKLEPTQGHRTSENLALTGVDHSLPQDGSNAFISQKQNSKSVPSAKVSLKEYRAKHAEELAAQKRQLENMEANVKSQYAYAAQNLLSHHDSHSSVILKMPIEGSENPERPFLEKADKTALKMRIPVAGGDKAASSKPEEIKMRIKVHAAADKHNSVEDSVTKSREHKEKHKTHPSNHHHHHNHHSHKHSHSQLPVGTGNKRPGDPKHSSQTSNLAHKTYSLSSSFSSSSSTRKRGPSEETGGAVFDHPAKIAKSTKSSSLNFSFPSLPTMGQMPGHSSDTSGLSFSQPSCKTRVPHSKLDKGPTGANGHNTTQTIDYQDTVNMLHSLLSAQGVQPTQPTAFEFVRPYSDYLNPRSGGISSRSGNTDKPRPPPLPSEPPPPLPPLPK

| SMILES | IC50 [nM] |
| --- | --- |
| CS(=O)(=O)N[C@H]1CC[C@@H](C(=O)Nc2cc(-c3nc(NCC4CCOCC4)ccc3Cl)c(Cl)cn2)C1 [Example 110, (1R,3S)-3-Methanesulfonylamino-cyclopentanecarboxylic acid {3,5′-dichloro-6-[(tetrahydro-pyran-4-ylmethyl)-amino]-[2,4′]bipyridinyl-2′-yl}-amide] | < 8 |
| COCCN1CCC[C@@H](C(=O)Nc2cc(-c3cccc(NCC4CCOCC4)n3)c(Cl)cn2)C1 [Example 16, (R)-1-(2-Methoxy-ethyl)-piperidine-3-carboxylic acid {5′-chloro-6-[(tetrahydro-pyran-4-ylmethyl)-amino]-[2,4′]bipyridinyl-2′-yl}-amide] | 855 |
| CC[C@@H]1CC[C@@H](C(=O)Nc2cc(-c3ccc(F)c(NCC4CCOCC4)n3)ccn2)CN1 (racemic) [Example 251, (3R,6R)-/(3S,6S)-6-Ethyl-piperidine-3-carboxylic acid {5-fluoro-6-[(tetrahydro-pyran-4-ylmethyl)-amino]-[2,4′]bipyridinyl-2′-yl}-amide] | 1 |
| CC(=O)N1CCC(CNc2cccc(-c3cc(NC(=O)[C@@H]4CCCNC4)ncc3Cl)n2)CC1 [Example 30, (R)-Piperidine-3-carboxylic acid {6-[(1-acetyl-piperidin-4-ylmethyl)-amino]-5′-chloro-[2,4′]bipyridinyl-2′-yl}-amide] | < 8 |
| CC1(C)CC(CNc2nc(-c3cc(NC(=O)[C@@H]4CCCNC4)ncc3Cl)ccc2F)CCO1 (stereo partly drawn) [Example 198, (R)-Piperidine-3-carboxylic acid {5′-chloro-6-[(2,2-dimethyl-tetrahydro-pyran-4-ylmethyl)-amino]-5-fluoro-[2,4′]bipyridinyl-2′-yl}-amide] | 1 |
| C[C@H](Nc1cccc(-c2cc(NC(=O)[C@@H]3CCCNC3)ncc2Cl)n1)C1CCOCC1 [Example 136, (R)-Piperidine-3-carboxylic acid {5′-chloro-6-[(S)-1-(tetrahydro-pyran-4-yl)-ethylamino]-[2,4′]bipyridinyl-2′-yl}-amide] | 13 |
| CC(C)S(=O)(=O)N[C@@H]1CC[C@H](C(=O)Nc2cc(-c3nc(NCC4CCOCC4)ccc3Cl)c(Cl)cn2)C1 [Example 114, (1S,3R)-3-(Propane-2-sulfonylamino)-cyclopentanecarboxylic acid {3,5′-dichloro-6-[(tetrahydro-pyran-4-ylmethyl)-amino]-[2,4′]bipyridinyl-2′-yl}-amide] | < 8 |

Results, then the compound that gave them:

| IC50 [nM] | SMILES |
| --- | --- |
| < 8 | N[C@H]1CC[C@@H](C(=O)Nc2cc(-c3cccc(NCC4CCOCC4)n3)c(Cl)cn2)C1 [Example 48, (1R,3S)-3-Amino-cyclopentanecarboxylic acid {5′-chloro-6-[(tetrahydro-pyran-4-ylmethyl)-amino]-[2,4′]bipyridinyl-2′-yl}-amide] |
| < 8 | N[C@H]1CC[C@@H](C(=O)Nc2cc(-c3nc(NCC4CCOCC4)ccc3Cl)c(Cl)cn2)C1 [Example 100, (1R,3S)-3-Amino-cyclopentanecarboxylic acid {3,5′-dichloro-6-[(tetrahydro-pyran-4-ylmethyl)-amino]-[2,4′]bipyridinyl-2′-yl}-amide] |
| 19 | O=C(Nc1cc(-c2cccc(NCC3CCOCC3)n2)c(Cl)cn1)C1CCCOC1 (stereo not drawn) [Example 62, Tetrahydro-pyran-3-carboxylic acid {5′-chloro-6-[(tetrahydro-pyran-4-ylmethyl)-amino]-[2,4′]bipyridinyl-2′-yl}-amide] |
| 81 | O=C(Nc1cc(-c2cccc(NCC3CCOCC3)n2)c(Cl)cn1)[C@H]1CCCN1 [Example 57, (R)-Pyrrolidine-2-carboxylic acid {5′-chloro-6-[(tetrahydro-pyran-4-ylmethyl)-amino]-[2,4′]bipyridinyl-2′-yl}-amide] |
| 23 | O=C(Nc1cc(-c2cccc(NCC3CCOCC3)n2)c(Cl)cn1)[C@@H]1CNC[C@H](F)C1 [Example 176, (3S,5R)-5-Fluoro-piperidine-3-carboxylic acid {5′-chloro-6-[(tetrahydro-pyran-4-ylmethyl)-amino]-[2,4′]bipyridinyl-2′-yl}-amide] |
